Molecular target: T1, human Nav1.7 channels (Homo sapiens, UniProt Q15858)
T1 construct: expressed in transfected cells; host or cells: CHO
Assay: FRET assay, human Nav1.7 (EFS on FDSS)
Type: cell-based
Details: CHO cells expressing human Nav1.7, read-out: IC50 against Nav1.7
Experimental: The inhibitory activities of compounds against voltage gated sodium channels are determined by methodology well known in the art.
The ability of the aryl substituted carboxamide derivatives of the formula (I) to inhibit the NaV1.3, Nav1.7 and Nav1.5 channels is measured by Fluorescence Resonance Energy Transfer (FRET) assay and electrophysiology assay described below.
This screen is used to determine the effects of compounds on human Nav1.3, human Nav1.7, and human Nav1.5 channels, utilising electrical field stimulation (EFS) system in 96-well plate format on FDSS (Hamamatsu Photonics) platform. The change of membrane potential is monitored with FRET dye pair, oxonol (DiSBAC2(3)) and coumarin (CC2-DMPE).
CHO cells expressing human Nav1.7 channels are grown in T225 flasks, in a 5% CO2 humidified incubator to about 80% confluence. Media composition consists of HAM/F12 with Glutamax 1.10% FCS, 100 units/mL Penicillin and 100 microgram/mL Hygromycin.
Protocol: • Seed each cell lines (1×10^5 cells/well) into poly-D-lysine coated 96-well plates prior to experimentation. • Incubate at 37° C. in 5% CO2 for 24 hours. • Wash each well with assay buffer (140 mM NaCl, 4.5 mM KCl, 10 mM D-Glucose, 2 mM CaCl2, 1 mM MgCl2, 10 mM HEPES, pH 7.4 adjusted with NaOH) twice. • Add 1st loading solution containing 10 microM CC2-DMPE and 0.06% Pluronic F-127 in assay buffer. • Incubate the plate at room temperature in dark for 1 hour. • Remove 1st loading solution and added 2nd loading solution containing 15 microM DiSBAC2(3), 0.555 mM VABSC-1 and 0.004% Pluronic F-127 in assay buffer. • Place the plate under the dark at room temperature for 25 minutes. • Add compound solutions into the assay plate. • Set the assay plate in FDSS and placed an EFS device on the plate. • Measure EFS-induced fluorescent response by FDSS.
The data are analyzed and reported as normalized ratios of intensities measured at […]. The process of calculating these ratios is performed as follows:
This analysis is performed using a computerized specific program designed for FDSS generated data. Fluorescence ratio values are plotted using XLfit to determine an IC50 value for each compound.

T1 sequence (Q15858 whole entry): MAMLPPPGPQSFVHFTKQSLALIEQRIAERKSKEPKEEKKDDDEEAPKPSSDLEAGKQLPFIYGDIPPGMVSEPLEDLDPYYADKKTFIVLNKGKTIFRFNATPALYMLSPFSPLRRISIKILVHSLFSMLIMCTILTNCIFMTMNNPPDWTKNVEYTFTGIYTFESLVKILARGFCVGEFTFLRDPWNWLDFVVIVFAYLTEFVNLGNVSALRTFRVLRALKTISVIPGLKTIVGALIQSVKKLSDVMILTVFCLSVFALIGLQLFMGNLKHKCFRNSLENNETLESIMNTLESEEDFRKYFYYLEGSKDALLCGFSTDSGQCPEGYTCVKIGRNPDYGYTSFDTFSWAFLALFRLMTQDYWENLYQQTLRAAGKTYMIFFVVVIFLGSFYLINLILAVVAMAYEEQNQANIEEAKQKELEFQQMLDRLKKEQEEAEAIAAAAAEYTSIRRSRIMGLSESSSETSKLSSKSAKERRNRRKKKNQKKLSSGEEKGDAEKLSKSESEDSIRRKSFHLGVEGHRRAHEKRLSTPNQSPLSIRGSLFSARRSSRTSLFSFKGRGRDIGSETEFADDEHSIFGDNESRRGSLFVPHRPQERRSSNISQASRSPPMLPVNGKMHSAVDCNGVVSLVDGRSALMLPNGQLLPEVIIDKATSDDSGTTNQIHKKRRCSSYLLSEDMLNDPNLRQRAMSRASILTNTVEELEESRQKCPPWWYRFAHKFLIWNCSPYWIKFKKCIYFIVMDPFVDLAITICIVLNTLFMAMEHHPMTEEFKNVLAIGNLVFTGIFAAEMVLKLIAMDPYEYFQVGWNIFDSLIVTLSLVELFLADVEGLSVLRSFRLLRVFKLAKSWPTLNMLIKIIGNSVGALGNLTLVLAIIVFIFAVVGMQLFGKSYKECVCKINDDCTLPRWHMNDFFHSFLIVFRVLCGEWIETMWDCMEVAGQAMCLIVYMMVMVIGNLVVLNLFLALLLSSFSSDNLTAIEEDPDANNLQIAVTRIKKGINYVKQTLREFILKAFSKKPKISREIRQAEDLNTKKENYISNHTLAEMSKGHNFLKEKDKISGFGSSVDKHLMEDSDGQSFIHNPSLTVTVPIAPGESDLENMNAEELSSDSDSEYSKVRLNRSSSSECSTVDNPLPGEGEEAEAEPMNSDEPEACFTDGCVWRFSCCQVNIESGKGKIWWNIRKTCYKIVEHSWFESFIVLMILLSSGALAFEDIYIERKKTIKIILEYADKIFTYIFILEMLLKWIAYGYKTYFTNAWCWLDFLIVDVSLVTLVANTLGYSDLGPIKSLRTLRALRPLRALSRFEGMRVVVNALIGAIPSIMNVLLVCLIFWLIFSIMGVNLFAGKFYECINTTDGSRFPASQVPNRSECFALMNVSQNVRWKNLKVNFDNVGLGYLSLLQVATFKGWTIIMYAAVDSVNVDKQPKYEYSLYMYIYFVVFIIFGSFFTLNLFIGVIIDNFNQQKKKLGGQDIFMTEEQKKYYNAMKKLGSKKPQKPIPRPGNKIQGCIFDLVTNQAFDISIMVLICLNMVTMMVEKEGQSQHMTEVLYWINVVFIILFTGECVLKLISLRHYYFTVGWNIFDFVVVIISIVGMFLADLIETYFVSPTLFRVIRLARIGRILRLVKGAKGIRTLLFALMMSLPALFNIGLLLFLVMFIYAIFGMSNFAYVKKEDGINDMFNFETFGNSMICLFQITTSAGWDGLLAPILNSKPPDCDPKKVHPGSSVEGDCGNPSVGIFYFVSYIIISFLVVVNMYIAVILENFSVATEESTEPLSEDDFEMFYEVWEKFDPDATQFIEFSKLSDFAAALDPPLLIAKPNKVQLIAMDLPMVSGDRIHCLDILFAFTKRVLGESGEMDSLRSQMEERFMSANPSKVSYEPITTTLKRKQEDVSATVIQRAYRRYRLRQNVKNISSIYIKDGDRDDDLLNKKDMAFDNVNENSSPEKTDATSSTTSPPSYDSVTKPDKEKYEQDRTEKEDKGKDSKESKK

Structure (SMILES) | IC50 [µM]
CC(=O)Nc1nccc(C(=O)NC(C)c2cnc(OCC(F)(F)F)c(C)c2)n1 (single isomer, unassigned) [Example 234, 2-acetamido-N-(1-(5-methyl-6-(2,2,2-trifluoroethoxy)pyridin-3-yl)ethyl)pyrimidine-4-carboxamide] | < 1
CCC(=O)Nc1cc(C(=O)NCc2ccc(O[C@H](C)C(F)(F)F)nc2)ccn1 (single isomer, unassigned) [Example 316] | < 1
CCC(=O)Nc1cc(C(=O)NCc2ccc(O[C@H](C)C(F)(F)F)nc2)cc(C)n1 (single isomer, unassigned) [Example 318] | < 1
CC(C)C(=O)Nc1cc(C(=O)NCc2ccc(O[C@H](C)C(F)(F)F)nc2)ccn1 (single isomer, unassigned) [Example 319] | < 1
CC(=O)Nc1cc(C(=O)NCc2ccc(O[C@H](C)C(F)(F)F)nc2)cc(C)n1 (single isomer, unassigned) [Example 320] | < 1
COc1cc(C(C)NC(=O)c2cc(C)nc(NC(C)=O)c2)cnc1OCC(F)(F)F (single isomer, unassigned) [Example 330, 2-acetamido-N-(1-(5-methoxy-6-(2,2,2-trifluoroethoxy)pyridin-3-yl)ethyl)-6-methylisonicotinamide] | < 1
CCCC(=O)Nc1cc(C(=O)NC(C)c2cnc(OCC(F)(F)F)c(OC)c2)ccn1 (single isomer, unassigned) [Example 331, 2-butyramido-N-(1-(5-methoxy-6-(2,2,2-trifluoroethoxy)pyridin-3-yl)ethyl)isonicotinamide] | < 1
Cc1cc(C(C)NC(=O)c2ccnc(NC(=O)C(C)C)c2)cnc1OCC(F)(F)F (single isomer, unassigned) [Example 378, 2-isobutyramido-N-(1-(5-methyl-6-(2,2,2-trifluoroethoxy)pyridin-3-yl)ethyl)isonicotinamide] | < 1
CC(=O)Nc1cc(C(=O)NC(C)c2cnc(OCC(F)(F)F)c(C)c2)cc(C)n1 (single isomer, unassigned) [Example 379, 2-acetamido-6-methyl-N-(1-(5-methyl-6-(2,2,2-trifluoroethoxy)pyridin-3-yl)ethyl)isonicotinamide] | < 1
CC(=O)Nc1cc(C(=O)N(C)C(C)c2cnc(OCC(F)(F)F)c(C)c2)cc(C)n1 (single isomer, unassigned) [Example 391, 2-acetamido-N,6-dimethyl-N-(1-(5-methyl-6-(2,2,2-trifluoroethoxy)pyridin-3-yl)ethyl)isonicotinamide] | < 1
CC(=O)Nc1cc(C(=O)N(C)C(C)c2cnc(OCC(F)(F)F)c(C)c2)ccn1 (single isomer, unassigned) [Example 392, 2-acetamido-N-methyl-N-(1-(5-methyl-6-(2,2,2-trifluoroethoxy)pyridin-3-yl)ethyl)isonicotinamide] | < 1
COc1cc(C(C)NC(=O)c2ccnc(NC(=O)C3CC3)n2)cnc1OCC(F)(F)F (single isomer, unassigned) [Example 400, 2-(cyclopropanecarboxamido)-N-(1-(5-methoxy-6-(2,2,2-trifluoroethoxy)pyridin-3-yl)ethyl)pyrimidine-4-carboxamide] | < 1
CC(NC(=O)c1ccnc(NC(=O)C2CC2)n1)c1ccc(OCC(F)(F)F)cc1 (single isomer, unassigned) [Example 405, 2-(cyclopropanecarboxamido)-N-(1-(4-(2,2,2-trifluoroethoxy)phenyl)ethyl)pyrimidine-4-carboxamide] | < 1
CC(C)C(=O)Nc1cc(C(=O)NC(C)c2cccc(OC(F)(F)F)c2)ccn1 (single isomer, unassigned) [Example 418, 2-isobutyramido-N-(1-(3-(trifluoromethoxy)phenyl)ethyl)isonicotinamide] | < 1
CC(=O)Nc1cc(C(=O)NC(C)c2cccc(OC(F)(F)F)c2)cc(C)n1 (single isomer, unassigned) [Example 420, 2-acetamido-6-methyl-N-(1-(3-(trifluoromethoxy)phenyl)ethyl)isonicotinamide] | < 1
